Common to all, as to conditions: stereoisomer not certain
Data set [1] in a line: Other, Phenomenex Kinetex PFP, 100 × 4.6 mm, 5 µm, 45 °C, 0.6 mL/min, estimated dead time 1.8 min; A: water + 0.1% trifluoroacetic acid, pH 2; B: methanol; gradient (min/%B) 0/40 20/72 21/40.
Data set [2] in a line: RP, Agilent ZORBAX RRHD Eclipse Plus C18, 50 × 2.1 mm, 1.8 µm, 30 °C, 0.4 mL/min, estimated dead time 0.28 min; A: water + 0.1% formic acid, pH 3; B: acetonitrile + 0.1% formic acid, pH 3; gradient (min/%B) 0/1 5/10 8/25 9.1/99 10/99 12/1.
The nature of data set [3]: RP, Agilent ZORBAX RRHD Eclipse Plus C18, 50 × 2.1 mm, 1.8 µm, 30 °C, 0.4 mL/min, estimated dead time 0.28 min; A: water + 0.1% formic acid, pH 3; B: acetonitrile + 0.1% formic acid, pH 3; gradient (min/%B) 0/1 5/10 8/25 9.1/99 10/99 12/99.
Data set [4] is described as follows: RP, Phenomenex Synergi Hydro-RP, 250 × 2 mm, 4 µm, 25 °C, 0.2 mL/min, estimated dead time 2.5 min; A: water + 0.1% formic acid, pH 3; B: acetonitrile + 0.1% formic acid, pH 3; gradient (min/%B) 0/0.5 7/0.5 12/12.5 25/16.3 47/35 48/65 50/65 50.1/0.5.
Data set [5] in a line: RP, Waters Atlantis T3, 100 × 2.1 mm, 3 µm, 40 °C, 0.3 mL/min, estimated dead time 0.73 min; A: water + 0.1% trifluoroacetic acid, pH 2; B: acetonitrile + 0.1% trifluoroacetic acid, pH 2; gradient (min/%B) 0/10 1/10 6/40 7/50 8/50 14/70 16/80 20/10 25/10.
Data set [6] is described as follows: RP, Merck Supelco SUPELCOSIL LC-C18, 250 × 4.6 mm, 5 µm, 40 °C, 1 mL/min, estimated dead time 2.6 min; A: water + 0.1% trifluoroacetic acid, pH 2; B: acetonitrile + 0.1% trifluoroacetic acid, pH 2; gradient (min/%B) 0/5 45/35 47/75 49/35 50/5.
Data set [7] can be described thus: RP, Waters ACQUITY UPLC HSS T3, 100 × 2.1 mm, 50 °C; A: water + 0.1% formic acid, pH 3; B: 30% methanol + 70% acetonitrile + 0.1% formic acid, pH 3; gradient (min/%B) 0/5 1/8 2/15 3/40 4/70 4.5/100 5/100 6.4/100 6.6/5 6.8/5 7/5.
A short description of data set [8]: RP, 150 × 2.1 mm, 2.6 µm, 40 °C, 0.35 mL/min, estimated dead time 0.94 min; A: water + 0.1% formic acid, pH 3; B: acetonitrile + 0.1% formic acid, pH 3; gradient (min/%B) 0/0 1/0 12.5/100 14/100 14.2/0 15/0.
A short description of data set [9]: RP, 150 × 2.1 mm, 2.6 µm, 40 °C, 0.35 mL/min, estimated dead time 0.94 min; A: water + 0.1% formic acid, pH 3; B: acetonitrile + 0.1% formic acid, pH 3; gradient (min/%B) 0/0 1/5 7/45 8.5/80 10.5/80 11/5 12/5.
Data set [10] is described as follows: RP, Merck LiChrospher RP-18, 250 × 4 mm, 5 µm, 35 °C, 0.3 mL/min, estimated dead time 6.7 min; A: water + 0.5% formic acid; B: acetonitrile + 0.5% formic acid; gradient (min/%B) 0/5 10/5 30/15 45/20 65/20 95/54 110/63 115/5 135/5.
Data set [11] in a line: RP, Waters ACQUITY UPLC HSS T3, 100 × 2.1 mm, 1.8 µm, 30 °C, 0.4 mL/min, estimated dead time 0.55 min; A: water + 0.1% formic acid, pH 3; B: acetonitrile + 0.1% formic acid, pH 3; gradient (min/%B) 0/0 2/0 15/100 22/100 22.1/0 26/0.
A short description of data set [12]: RP, Waters ACQUITY UPLC BEH C18, 100 × 2.1 mm, 1.7 µm, 65 °C, 0.4 mL/min, estimated dead time 0.55 min; A: water + 0.1% formic acid, pH 3; B: 80% acetonitrile + 20% acetone + 0.1% formic acid, pH 3; gradient (min/%B) 0/0 5/100 5.5/0 6/0.
Data set [13] is described as follows: RP, Agilent InfinityLab Poroshell 120 EC-C18, 100 × 3 mm, 2.7 µm, 25 °C, 0.4 mL/min, estimated dead time 1.1 min; A: water + 0.1% formic acid, pH 3; B: acetonitrile + 0.1% formic acid, pH 3; gradient (min/%B) 0/5 10/25 20/40 24/90 25/90 26/5 30/5.
Data set [14] can be described thus: RP, 50 × 0.5 mm, 2.7 µm, 35 °C, 0.01 mL/min, estimated dead time 0.62 min; A: water + 0.1% formic acid, pH 3; B: acetonitrile + 0.1% formic acid, pH 3; gradient (min/%B) 0/5 12/95 14/95 16/5.
A short description of data set [15]: RP, Phenomenex Synergi Hydro-RP, 150 × 2 mm, 4 µm, 30 °C, 0.5 mL/min, estimated dead time 0.6 min; A: water + 0.1% formic acid, pH 3; B: acetonitrile + 0.1% formic acid, pH 3; gradient (min/%B) 0/5 1/5 35/45 40/100 45/100.
Data set [16] is described as follows: RP, Phenomenex Luna Omega Polar C18, 100 × 2.1 mm, 1.6 µm, 40 °C, 0.5 mL/min, estimated dead time 0.44 min; A: water + 0.5% formic acid; B: acetonitrile + 0.5% formic acid; gradient (min/%B) 0/5 3/50 3.1/100 5/100 5.1/5 7/5.
Data set [17] in a line: RP, Phenomenex Luna C18, 150 × 4.6 mm, 3 µm, 25 °C, 0.5 mL/min, estimated dead time 3.2 min; A: water + 0.1% formic acid, pH 3; B: acetonitrile + 0.1% formic acid, pH 3; gradient (min/%B) 0/0 30/30 35/40 50/80 52/80 60/0 65/0.
Data set [18] in a line: RP, Phenomenex Luna Omega Polar C18, 100 × 2.1 mm, 1.6 µm, 40 °C, 0.5 mL/min, estimated dead time 0.44 min; A: water + 0.1% formic acid + 10 mM ammonium formate; B: acetonitrile; gradient (min/%B) 0/5 8/20 10/100 12/100 12.1/5 14/5.
The nature of data set [19]: RP, Agilent ZORBAX Eclipse XDB-C18, 100 × 2.1 mm, 1.8 µm, 50 °C, 0.4 mL/min, estimated dead time 0.55 min; A: water + 0.1% formic acid, pH 3; B: methanol + 0.1% formic acid, pH 3; gradient (min/%B) 0/2 10/100 14.5/100 14.51/2 16.5/2.
Data set [20] in a line: RP, Waters ACQUITY UPLC BEH Shield RP18, 100 × 2.1 mm, 1.7 µm, 30 °C, 0.6 mL/min, estimated dead time 0.37 min; A: water + 0.1% formic acid, pH 3; B: acetonitrile + 0.1% formic acid, pH 3; gradient (min/%B) 0/0 2/0 7/10 22/95 22.1/0 26/0.
The nature of data set [21]: RP, Waters ACQUITY UPLC BEH Shield RP18, 150 × 2.1 mm, 1.7 µm, 40 °C, 0.4 mL/min, estimated dead time 0.83 min; A: water + 0.1% formic acid, pH 3; B: acetonitrile + 0.1% formic acid, pH 3; gradient (min/%B) 0/0 30/50 31/100 37/100 37.1/0.

`Cc1ccc(O)c(OS(=O)(=O)O)c1` [4-Methylcatechol monosulfate]: in [1], the LC retention time was 4.92 min.

With `O=C(O)c1cccc(O)c1` [3-Hydroxybenzoic acid], the LC retention time in [1] was 5.57 min; in [2], 5.36 min; in [3], 4.26 min; in [4], 22.7 min; in data set [5], 5.01 min.

Consider `O=C(C=Cc1ccc(O)c(O)c1)OC1CC(OC(=O)C=Cc2ccc(O)c(O)c2)(C(=O)O)CC(O)C1O` (stereo not drawn) [1,3-dicaffeoylquinic acid], for which the LC retention time in data set [6] was 19.1 min.

`O=C(O)C=Cc1ccc(O)cc1O` [2,4-Dihydroxycinnamic acid]: the figures for the LC retention time in data set [1] and in [7] were 5.73 min and 3.08 min, respectively.

As for `OCC1OC(Oc2cc3c(O)cc(O)cc3[o+]c2-c2ccc(O)cc2)C(O)C(O)C1O` (stereo not drawn) [Pelargonidin-3-O-glucoside], the LC retention time in data set [6] was 23.4 min.

On to `CC1OC(OCC2OC(Oc3cc4c(O)cc(=O)cc-4oc3-c3ccc(O)cc3)C(O)C(O)C2O)C(O)C(O)C1O` (stereo not drawn) [Pelargonidin-3-O-rutinoside], for which the LC retention time in data set [6] is 24.3 min.

Regarding `OCC1OC(Oc2cc3c(OC4OC(CO)C(O)C(O)C4O)cc(O)cc3[o+]c2-c2ccc(O)c(O)c2)C(O)C(O)C1O` (stereo not drawn) [Cyanidin-3,5-O-diglucoside], in [6], the LC retention time is 16.4 min.

For `O=c1cc(-c2ccc(OS(=O)(=O)O)c(O)c2)oc2cc(O)cc(O)c12` [Luteolin 4-sulfate], in data set [1], the LC retention time was 17.1 min.

On to `O=C(OC1Cc2c(O)cc(O)cc2OC1c1ccc(O)c(O)c1)c1cc(O)c(O)c(O)c1` (stereo not drawn) [Epicatechin gallate], for which the LC retention time in [1] was 5.76 min; in data set [8], 5.67 min; in data set [9], 5.72 min; in [10], 58.6 min; in data set [11], 9.36 min.

With `O=c1cc(-c2ccc(OS(=O)(=O)O)c(O)c2)oc2cc(OS(=O)(=O)O)cc(O)c12` [Luteolin 7,4-disulfate], the LC retention time in data set [1] was 11.9 min.

For `O=c1cc(-c2ccc(O)c(OS(=O)(=O)O)c2)oc2cc(O)cc(O)c12` [Luteolin 3-sulfate], in data set [1], the LC retention time is 16.4 min.

On to `O=C1CC(c2ccc(O)c(O)c2)Oc2cc(O)cc(O)c21` (stereo not drawn) [Eriodictyol], for which the LC retention time in data set [1] is 15.4 min; in data set [8], 6.95 min; in [9], 7.21 min; in [10], 88.7 min; in data set [11], 10.9 min; in data set [12], 2.59 min. Besides, in [13], the LC retention time is 13.7 min.

For `O=C1c2c(O)cc(O)cc2OC(c2cc(O)c(OS(=O)(=O)O)c(O)c2)C1O` (stereo not drawn) [Ampelopsin-4-O-sulfate], the LC retention time in data set [1] was 7.54 min.

Consider `COc1cc(C2C3C=C(C4Oc5cc(O)cc(O)c5C(=O)C4O)C4C2COC4(O)C3=O)ccc1O` (stereo not drawn) [Silydianin], for which the LC retention time in data set [1] is 21.5 min.

In the case of `COc1cc(-c2[o+]c3cc(O)cc(O)c3cc2OC2OC(CO)C(O)C(O)C2O)ccc1O` (stereo not drawn) [Peonidin-3-O-glucoside], in data set [6], the LC retention time is 24.8 min.

Consider `O=c1c(OC2OC(CO)C(O)C(O)C2O)c(-c2ccc(O)c(O)c2)oc2cc(O)cc(O)c12` (stereo not drawn) [Quercetin-3-O-glucoside], for which, in data set [1], the LC retention time was 9.23 min.

`COc1cc(C2Oc3c(O)cc(C4Oc5cc(O)cc(O)c5C(=O)C4O)cc3C2CO)ccc1O` (stereo not drawn) [Silychristin]: the LC retention time in data set [1] is 10.3 min.

For `Oc1cc(O)cc(O)c1` [Phloroglucinol], the LC retention time in data set [1] was 2.9 min.

Consider `Cc1ccc(O)c(O)c1` [4-methylcatechol], for which the LC retention time in [1] is 6.24 min.

On to `O=c1c(O)c(-c2cc(O)c(OS(=O)(=O)O)c(O)c2)oc2cc(O)cc(O)c12` [Myricetin 4-O-sulfate], for which the LC retention time in data set [1] is 15.2 min.

For the molecule `COc1cc(C2Oc3c(O)cc(-c4oc5cc(O)cc(O)c5c(=O)c4O)cc3C2CO)ccc1O` (stereo not drawn) [2,3-Dehydrosilychristin A], the LC retention time in data set [1] is 17.5 min.

In the case of `O=c1c(OC2OC(CO)C(O)C(O)C2O)c(-c2ccc(OS(=O)(=O)O)c(O)c2)oc2cc(O)cc(O)c12` (stereo not drawn) [Isoquercitrin 4-O-sulfate], in data set [1], the LC retention time is 7.77 min.

As to `COc1cc(CC2COC(c3ccc(O)c(OC)c3)C2CO)ccc1O` (single isomer, unassigned; (+)) [(+)-Lariciresinol], the LC retention time in data set [14] was 5.08 min; in data set [15], 19.4 min; in data set [16], 2.68 min; in [17], 32.2 min; in [18] it was 9.31 min; in [11], 10.2 min. Moreover, the LC retention time in [19] is 5.5 min; in data set [12] it was 2.48 min; in data set [20], 13.5 min; in data set [21], 15 min; in data set [13], 12.1 min.

The values above are taken from the RepoRT retention time repository (doi:10.1016/j.foodchem.2021.129757).
